What was measured:
[1] = tested on: 5×FAD (Aβ plaques) Alzheimer's models; test: Water maze test, dementia group; format: in vivo, mouse
Method: The experimental animals used herein were 24-week-old 5×FAD (Aβ plaques) Alzheimer's models. The experimental animals were raised at a temperature of 22±3° C., at a relative humidity of 30±10%, and at an illuminance of 150 to 300 Lux for a lighting period of 12 hours (08:00˜20:00), and five or less animals were raised in each polycarbonate cage. The distilled water (DW)-administered group was used as a negative control (vehicle), and a donepezil-administered group was used as a positive control. The term “dementia group” refers to 5×FAD mice administered distilled water and the term “normal group” refers to wild-type mice administered distilled water. 2′-FL was orally administered at various concentrations to wild-type and 5×FAD mouse groups for 8 weeks and then a water maze test was performed. Specifically, a circular water tank with a diameter of 150 cm and a height of 60 cm was filled to a height of 30 cm with water, and an escape platform was installed in one area of the four quadrants of the tank. During the training period, the escape platform was placed 1 cm below the surface of the water in the tank so that it was invisible, training was repeated at the identical water entry point three times a day, and recording was performed using a video tracking system (SMART v3.0 panlab SL). When the experimental animal reached the escape platform within 60 seconds, it was allowed to stay on the escape platform for 15 seconds, and when it could not find the escape platform, it was guided to the escape platform by hand and trained to stay on the escape platform alone for 20 seconds. In the probe test on the 6th day, the escape platform was removed and the experimental animals were allowed to swim freely for 60 seconds. At this time, the time (sec) to first reach the location of the escape platform and the number of target crossings were recorded (FIG. 1). FIG. 1 is a schematic diagram illustrating the water maze test method.

wild-type mice = test: Water maze test, normal group; format: in vivo, mouse; settings: oral 8 weeks, compared to distilled water (vehicle), FIGS. 2 and 3
Method: The distilled water (DW)-administered group was used as a negative control (vehicle), and a donepezil-administered group was used as a positive control. The term “dementia group” refers to 5×FAD mice administered distilled water and the term “normal group” refers to wild-type mice administered distilled water. 2′-FL was orally administered at various concentrations to wild-type and 5×FAD mouse groups for 8 weeks and then a water maze test was performed. Specifically, a circular water tank with a diameter of 150 cm and a height of 60 cm was filled to a height of 30 cm with water, and an escape platform was installed in one area of the four quadrants of the tank. During the training period, the escape platform was placed 1 cm below the surface of the water in the tank so that it was invisible, training was repeated at the identical water entry point three times a day, and recording was performed using a video tracking system (SMART v3.0 panlab SL). When the experimental animal reached the escape platform within 60 seconds, it was allowed to stay on the escape platform for 15 seconds, and when it could not find the escape platform, it was guided to the escape platform by hand and trained to stay on the escape platform alone for 20 seconds. […] At this time, the time (sec) to first reach the location of the escape platform and the number of target crossings were recorded (FIG. 1). […]

[2] = tested on: 5×FAD (Aβ plaques) Alzheimer's models; test: Y-maze test; format: in vivo, mouse; settings: 5×FAD mice, oral 8 weeks, all concentrations, compared to the dementia group; n=8~12, FIG. 6
Method: (§1) The experimental animals used herein were 24-week-old 5×FAD (Aβ plaques) Alzheimer's models. The experimental animals were raised at a temperature of 22±3° C., at a relative humidity of 30±10%, and at an illuminance of 150 to 300 Lux for a lighting period of 12 hours (08:00˜20:00), and five or less animals were raised in each polycarbonate cage.
The distilled water (DW)-administered group was used as a negative control (vehicle), and a donepezil-administered group was used as a positive control. The term “dementia group” refers to 5×FAD mice administered distilled water and the term “normal group” refers to wild-type mice administered distilled water. […]
Specifically, the arms of the Y-maze were randomly designated as A, B, and C, the mouse was placed on one arm and allowed to move freely for 5 minutes, and then the arm where the mouse entered was recorded. This record was limited to cases where the tail thereof completely entered, and cases where it entered the same arm again were also recorded (FIG. 5). […]
The case where the mouse entered three different arms one after another was given one point (actual alteration). Alteration behavior is defined as a case where the mouse enters all of three arms in turn and the result was calculated in accordance with Equation 1 below (maximum change: total number of entries—2).

[3] = tested on: amyloid beta accumulated in mouse brain tissue; test: Amyloid beta accumulation analysis (thioflavin staining of cleared brain tissue); format: in vivo; settings: for Ab number / Ab number/volume: oral, 5×FAD mice
Method: as §1
The term “dementia group” refers to 5×FAD mice administered distilled water, and the term “normal group” refers to wild-type mice administered distilled water.
For the amyloid beta accumulated in mouse brain tissue, brain tissue over 1 mm in size was made transparent using a tissue transparency technique, stained with thioflavin, imaged in three dimensions, and then quantified as plaques for each brain region using the Imaris program.
In addition, three 1 mm-thick brain tissues were collected from each group, the volumes thereof were measured, and the total number of accumulated amyloid beta was measured.

[4] = tested on: phosphorylated tau protein; test: Tau protein hyperphosphorylation analysis (IHC); format: in vivo, mouse
Method: The experimental animals used herein were 24-week-old 5×FAD (Aβ plaques) Alzheimer's models. The experimental animals were raised at a temperature of 22±3° C., at a relative humidity of 30±10%, and at an illuminance of 150 to 300 Lux for a lighting period of 12 hours (08:00˜20:00), and five or less animals were raised in each polycarbonate cage. The distilled water (DW)-administered group was used as a negative control (vehicle), and a donepezil-administered group was used as a positive control. The term “dementia group” refers to 5×FAD mice administered distilled water, and the term “normal group” refers to wild-type mice administered distilled water. Hyperphosphorylation (p-tau) of tau protein was analyzed through image observation based on immunohistochemistry (IHC) using an antibody that detects tau protein expressed in mouse brain tissue and phosphorylated tau protein.

TNF-α = test: Neuroinflammatory marker analysis (ELISA), TNF-α; format: in vivo, mouse; settings: 2′-FL-administered dementia group compared to the dementia group; FIG. 12
Method: (§2) The experimental animals used herein were 24-week-old 5×FAD (Aβ plaques) Alzheimer's models. The experimental animals were raised at a temperature of 22±3° C., at a relative humidity of 30±10%, and at an illuminance of 150 to 300 Lux for a lighting period of 12 hours (08:00˜20:00), and five or less animals were raised in each polycarbonate cage. The distilled water (DW)-administered group was used as a negative control (vehicle), and a donepezil-administered group was used as a positive control. The term “dementia group” refers to 5×FAD mice administered distilled water, and the term “normal group” refers to wild-type mice administered distilled water. The concentrations of neuroinflammatory cytokines, TNF-α and IL-6 in mouse brain tissue homogenates were analyzed using enzyme-linked immunosorbent assay (ELISA).

IL-6 = test: Neuroinflammatory marker analysis (ELISA), IL-6; format: in vivo, mouse; settings: 2′-FL-administered dementia group compared to the dementia group; FIG. 13
Method: as §2

[5] = 2′-FL 300 group, 1st brain tissue
[6] = 2′-FL 300 group, 2nd brain tissue
[7] = 2′-FL 300 group, 3rd brain tissue
[8] = 2′-FL 600 group, 1st brain tissue
[9] = 2′-FL 600 group, 2nd brain tissue
[10] = 2′-FL 600 group, 3rd brain tissue
[11] = 2′-FL 1200 group, 1st brain tissue
[12] = 2′-FL 1200 group, 2nd brain tissue
[13] = 2′-FL 1200 group, 3rd brain tissue

Q: What does the source list for 2′-fucosyllactose [2′-FL]?
A: arrival route to the escape platform ([1]; 5th day of water maze training, 2′-FL-administered dementia group compared to the dementia group, FIG. 4): simplified; spatial memory through training ([1]; all concentrations, 2′-FL-administered dementia group compared to the dementia group): significantly improved spatial memory; time to arrive at the escape platform during the water maze training period ([1]; dementia group (5×FAD mice), oral 8 weeks, compared to distilled water (vehicle), FIGS. 2 and 3): reduced the time to arrive at the escape platform; time to arrive at the escape platform during the water maze training period (wild-type mice): reduced the time to arrive at the escape platform; spontaneous alteration (SA) [2]: significantly increased SA; Ab number [3, 5]: 23900; Ab number/volume [3, 5]: 8628; Ab number [3, 6]: 26900; Ab number/volume [3, 6]: 9642; Ab number [3, 7]: 42000; Ab number/volume [3, 7]: 12174; Ab number ([3]; 2′-FL 300 group, Avr. of three brain tissues): 30933; Ab number/volume ([3]; 2′-FL 300 group, Avr. of three brain tissues, *p ≤ 0.05 vs. Vehicle): 10148*; Ab number [3, 8]: 32000; Ab number/volume [3, 8]: 11722; Ab number [3, 9]: 38400; Ab number/volume [3, 9]: 11852; Ab number [3, 10]: 20800; Ab number/volume [3, 10]: 5762; Ab number ([3]; 2′-FL 600 group, Avr. of three brain tissues): 30400; Ab number/volume ([3]; 2′-FL 600 group, Avr. of three brain tissues, *p ≤ 0.05 vs. Vehicle): 9778*; Ab number [3, 11]: 34300; Ab number/volume [3, 11]: 10719; Ab number [3, 12]: 31900; Ab number/volume [3, 12]: 7800; Ab number [3, 13]: 37000; Ab number/volume [3, 13]: 12092; Ab number ([3]; 2′-FL 1200 group, Avr. of three brain tissues): 34400; Ab number/volume ([3]; 2′-FL 1200 group, Avr. of three brain tissues, *p ≤ 0.05 vs. Vehicle): 10203*; amyloid beta accumulation ([3]; brain cortex of dementia group, n=8-12, FIG. 7): decrease in amyloid beta accumulation; amyloid beta accumulation ([3]; brain hippocampus of dementia group, n=8-12, FIG. 8): decrease in amyloid beta accumulation; accumulation of amyloid beta throughout the brain ([3]; dementia group, three 1 mm-thick brain tissues per group, Table 1, FIG. 9): significantly inhibited; inhibition of tau protein hyperphosphorylation ([4]; brain cortex of dementia group, n=8~12, FIG. 10): no significant effect; inhibition of tau protein hyperphosphorylation ([4]; brain hippocampus of dementia group, n=8~12, FIG. 11): no significant effect; concentration of TNF-α (TNF-α): significantly decreased; concentration of IL-6 (IL-6): significantly decreased

From US20240173341A1, “COMPOSITION FOR AMELIORATING OR TREATING DEMENTIA CONTAINING 2'-FUCOSYLLACTOSE” (Advanced Protein Technologies Corp., priority 2022, published 2024)
